Experimental data taken from US20250034216A1, “STEREOSELECTIVE COVALENT LIGANDS FOR ONCOGENIC AND IMMUNOLOGICAL PROTEINS” (The Scripps Research Institute, priority 2021, published 2025).

Experiments:
Assay in all cases: IA-DTB cysteine engagement, GluC + trypsin digest
Format in all cases: binding
Conditions in all cases: 22Rv1 cells
[1] = molecular target: T1, PSME1 106 (Homo sapiens, UniProt Q06323)
T1 construct: stereoselectively engaged C22 of endogenous PSME1 in 22Rv1 cells; endogenous in cells; host or cells: 22Rv1
T1 sequence (Q06323 whole entry): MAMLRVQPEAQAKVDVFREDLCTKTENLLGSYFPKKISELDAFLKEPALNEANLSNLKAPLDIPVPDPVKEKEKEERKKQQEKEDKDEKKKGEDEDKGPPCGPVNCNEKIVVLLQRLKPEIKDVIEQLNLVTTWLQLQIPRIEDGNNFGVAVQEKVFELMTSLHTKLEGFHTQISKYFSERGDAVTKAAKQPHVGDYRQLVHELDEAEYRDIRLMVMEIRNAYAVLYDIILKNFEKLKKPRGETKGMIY
Experimental: (§1) Sample preparation: Cells (adherent: 15 cm dishes, suspension: 2 million cells/mL) were treated with electrophilic probes in situ for indicated times and concentrations, washed with ice-cold PBS, and flash frozen in liquid nitrogen. Cell pellets were lysed by sonication (8 pulses, 40% power) in 500 μL ice-cold PBS supplemented with cOmplete protease inhibitors (1 tablet/10 mL of PBS). Whole cell lysates protein content was measured using a standard DC protein assay (Bio-Rad) and 500 μL (2 mg/mL protein content) were treated with 5 μL of 10 mM 1A-DTB (in DMSO) for 1 h at ambient temperature with occasional vortexing. Samples were methanol-chloroform precipitated with the addition of 500 μL ice-cold MeOH and 200 μL CHCl3, vortexed, and centrifuged (10 min, 10,000 g). Without disrupting the protein disk, both top and bottom layers were aspirated and the protein disk was washed with 1 mL ice-cold MeOH and centrifuged (10 min, 10,000 g). The pellets were allowed to air dry, and then re-suspended in 90 μL buffer (9 M urea, 10 mM DTT, 50 mM TEAB pH 8.5). Samples were reduced by heating at 65 C for 20 minutes and water bath sonicated as needed to resuspend the protein pellets, followed by alkylation via addition of 10 μL (500 mM) iodoacetamide and incubated at 37 C for 30 min with shaking. Samples were briefly centrifuged, and probe sonicated once more to ensure complete resuspension, and then diluted with 300 μL buffer (50 mM TEAB pH 8.5) to reach final concentration of 2 M urea. […] Digested samples were then diluted with 300 μL wash buffer (50 mM TEAB pH 8.5, 150 mM NaCl, 0.2% NP-40) containing streptavidin-agarose beads (50 μL of 50% slurry in wash buffer) and were rotated at room temperature for 2 hours. Enriched samples were pelleted by centrifugation (2000 g, 2 min) and transferred to BioSpin columns and washed (3×1 mL wash buffer, 3×1 mL PBS, 3×1 mL water). Enriched peptides were eluted by 300 μL 50% acetonitrile with 0.1% formic acid and eluate was evaporated to dryness via speedvac. IA-DTB labeled and enriched peptides were resuspended in 100 μL EPPS buffer (200 mM, pH 8.0) with 30% acetonitrile, vortexed, and water bath sonicated. Samples were TMT labeled with 3 μL of corresponding TMT tag (5 mg tag resuspended in 256 μL acetonitrile), vortexed, and incubated at room temperature for 1 hour. TMT labeling was quenched with the addition of hydroxylamine (5 μL 5% solution in H2O) and incubated for 15 minutes at room temperature. Samples were then acidified with 5 μL formic acid, combined and dried using a SpeedVac. Samples were desalted via Sep-Pak and then high pH fractionated.
(§2) Data processing: Cysteine engagement ratios (probe vs DMSO) were calculated for each peptide-spectra match by dividing each TMT reporter ion intensity by the average intensity for the channels corresponding to DMSO treatment. Peptide-spectra matches were then grouped based on protein ID and residue number (e.g., PSME1 C22), […] ion intensities for the DMSO channels <10,000, coefficient of variation for DMSO channels >0.5, […] TMT reporter ion intensities were normalized to the median summed signal intensity across channels.
(§3) Samples were analyzed by liquid chromatography tandem mass-spectrometry using an Orbitrap Fusion mass spectrometer (Thermo Scientific) coupled to an UltiMate 3000 Series Rapid Separation LC system and autosampler (Thermo Scientific Dionex). The peptides were eluted onto a capillary column (75 μm inner diameter fused silica, packed with C18 (Waters, Acquity BEH C18, 1.7 μm, 25 cm)) or an EASY-Spray HPLC column (Thermo ES902, ES903) using an Acclaim PepMap 100 (Thermo 164535) loading column, and separated at a flow rate of 0.25 μL/min. Data was acquired using an MS3-based TMT method on Orbitrap Fusion or Orbitrap Eclipse Tribrid Mass Spectrometers. […]

[2] = molecular target: T2, SF3B1 933 (Homo sapiens, UniProt O75533+Q7RTV0)
T2 construct: Cysteine engagement data from 22Rv1 cells treated; endogenous in cells; host or cells: 22Rv1
T2 sequence (O75533 whole entry): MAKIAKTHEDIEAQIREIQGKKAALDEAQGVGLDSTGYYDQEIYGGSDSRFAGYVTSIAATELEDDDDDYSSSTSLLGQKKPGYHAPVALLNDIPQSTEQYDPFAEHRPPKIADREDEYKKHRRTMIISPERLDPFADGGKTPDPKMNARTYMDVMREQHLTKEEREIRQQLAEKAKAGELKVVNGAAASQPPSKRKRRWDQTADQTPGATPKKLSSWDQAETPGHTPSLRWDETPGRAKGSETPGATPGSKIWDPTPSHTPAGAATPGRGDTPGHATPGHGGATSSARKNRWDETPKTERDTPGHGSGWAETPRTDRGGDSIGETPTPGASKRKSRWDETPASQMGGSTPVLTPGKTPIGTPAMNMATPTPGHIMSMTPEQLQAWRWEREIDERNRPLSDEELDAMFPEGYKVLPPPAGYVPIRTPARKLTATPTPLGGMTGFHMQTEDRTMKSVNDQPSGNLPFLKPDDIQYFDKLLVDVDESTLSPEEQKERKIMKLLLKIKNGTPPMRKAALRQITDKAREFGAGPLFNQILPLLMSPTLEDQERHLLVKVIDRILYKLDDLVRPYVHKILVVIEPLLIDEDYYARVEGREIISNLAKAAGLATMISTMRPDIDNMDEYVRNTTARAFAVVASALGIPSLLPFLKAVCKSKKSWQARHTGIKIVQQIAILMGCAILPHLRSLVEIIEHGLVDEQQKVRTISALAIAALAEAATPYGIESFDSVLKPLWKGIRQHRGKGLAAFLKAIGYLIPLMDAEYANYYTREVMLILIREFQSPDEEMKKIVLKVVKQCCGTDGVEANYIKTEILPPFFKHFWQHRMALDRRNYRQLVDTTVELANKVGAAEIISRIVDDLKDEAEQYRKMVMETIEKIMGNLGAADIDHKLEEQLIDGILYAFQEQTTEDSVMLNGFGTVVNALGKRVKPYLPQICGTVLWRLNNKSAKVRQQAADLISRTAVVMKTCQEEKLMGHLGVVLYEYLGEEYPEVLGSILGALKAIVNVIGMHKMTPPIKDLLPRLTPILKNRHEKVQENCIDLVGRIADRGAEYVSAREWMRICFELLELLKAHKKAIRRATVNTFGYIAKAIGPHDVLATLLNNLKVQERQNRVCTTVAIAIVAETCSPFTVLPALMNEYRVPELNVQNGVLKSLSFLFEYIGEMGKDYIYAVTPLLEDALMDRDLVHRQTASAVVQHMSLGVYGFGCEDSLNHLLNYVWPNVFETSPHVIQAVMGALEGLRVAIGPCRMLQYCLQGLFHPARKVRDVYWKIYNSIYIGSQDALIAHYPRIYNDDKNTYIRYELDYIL
T2 sequence (Q7RTV0 whole entry): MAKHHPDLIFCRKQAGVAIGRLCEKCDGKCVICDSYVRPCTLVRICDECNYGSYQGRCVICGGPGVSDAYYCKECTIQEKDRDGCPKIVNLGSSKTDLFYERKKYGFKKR
T2 sequence (Q15393 whole entry partner): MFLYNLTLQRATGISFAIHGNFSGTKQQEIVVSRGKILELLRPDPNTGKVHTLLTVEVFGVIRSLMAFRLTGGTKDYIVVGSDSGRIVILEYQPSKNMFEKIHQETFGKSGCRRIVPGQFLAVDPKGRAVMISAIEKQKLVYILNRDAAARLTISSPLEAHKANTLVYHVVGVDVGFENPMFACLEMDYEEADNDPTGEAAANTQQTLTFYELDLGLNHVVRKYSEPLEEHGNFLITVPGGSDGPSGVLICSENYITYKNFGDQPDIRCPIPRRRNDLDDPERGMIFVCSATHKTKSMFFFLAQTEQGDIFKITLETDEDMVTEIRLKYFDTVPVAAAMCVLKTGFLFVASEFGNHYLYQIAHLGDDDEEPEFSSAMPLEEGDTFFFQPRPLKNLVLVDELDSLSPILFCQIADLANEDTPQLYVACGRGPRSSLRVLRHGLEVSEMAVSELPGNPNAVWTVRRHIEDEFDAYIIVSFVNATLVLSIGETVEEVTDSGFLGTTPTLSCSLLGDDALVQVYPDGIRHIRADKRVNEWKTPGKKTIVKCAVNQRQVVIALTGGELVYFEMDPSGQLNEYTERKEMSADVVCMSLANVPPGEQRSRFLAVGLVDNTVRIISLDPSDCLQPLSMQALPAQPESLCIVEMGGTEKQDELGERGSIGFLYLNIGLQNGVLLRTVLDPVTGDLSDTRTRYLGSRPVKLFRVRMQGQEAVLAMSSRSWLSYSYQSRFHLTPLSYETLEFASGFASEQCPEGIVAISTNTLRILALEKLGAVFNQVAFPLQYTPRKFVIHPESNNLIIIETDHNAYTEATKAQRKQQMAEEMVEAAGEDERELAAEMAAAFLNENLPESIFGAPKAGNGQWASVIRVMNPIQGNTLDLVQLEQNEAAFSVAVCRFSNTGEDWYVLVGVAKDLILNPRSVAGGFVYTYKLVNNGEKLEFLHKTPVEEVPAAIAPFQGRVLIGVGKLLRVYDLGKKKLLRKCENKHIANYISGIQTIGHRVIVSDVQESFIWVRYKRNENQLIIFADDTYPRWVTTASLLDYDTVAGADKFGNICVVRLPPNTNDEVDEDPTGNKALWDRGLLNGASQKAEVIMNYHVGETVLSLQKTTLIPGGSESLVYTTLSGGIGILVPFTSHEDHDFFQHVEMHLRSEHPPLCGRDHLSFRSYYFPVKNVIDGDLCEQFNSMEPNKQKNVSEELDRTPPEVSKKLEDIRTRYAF
T2 sequence (Q9BWJ5 whole entry partner): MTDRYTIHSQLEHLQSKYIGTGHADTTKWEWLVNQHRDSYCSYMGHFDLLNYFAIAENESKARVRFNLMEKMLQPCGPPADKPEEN
Experimental: as §1, §2, §3

[3] = molecular target: T3, SF3B1 1035 (Homo sapiens, UniProt O75533+Q7RTV0)
T3 construct: Cysteine engagement data from 22Rv1 cells treated; endogenous in cells; host or cells: 22Rv1
T3 sequence (O75533 whole entry): as the sequence (O75533 whole entry) above
T3 sequence (Q7RTV0 whole entry): as the sequence (Q7RTV0 whole entry) above
T3 sequence (Q15393 whole entry partner): as the sequence (Q15393 whole entry partner) above
T3 sequence (Q9BWJ5 whole entry partner): as the sequence (Q9BWJ5 whole entry partner) above
Experimental: as §1, §2, §3

[4] = molecular target: T4, SF3B1 1244 (Homo sapiens, UniProt O75533+Q7RTV0)
T4 construct: Cysteine engagement data from 22Rv1 cells treated; endogenous in cells; host or cells: 22Rv1
T4 sequence (O75533 whole entry): as the sequence (O75533 whole entry) above
T4 sequence (Q7RTV0 whole entry): as the sequence (Q7RTV0 whole entry) above
T4 sequence (Q15393 whole entry partner): as the sequence (Q15393 whole entry partner) above
T4 sequence (Q9BWJ5 whole entry partner): as the sequence (Q9BWJ5 whole entry partner) above
Experimental: as §1, §2, §3

[5] = molecular target: T5, PSME1 101 (Homo sapiens, UniProt Q06323)
T5 construct: stereoselectively engaged C22 of endogenous PSME1 in 22Rv1 cells; endogenous in cells; host or cells: 22Rv1
T5 sequence (Q06323 whole entry): as the sequence (Q06323 whole entry) above
Experimental: as §1, §2, §3

[6] = molecular target: T6, SF3B1 1123 (Homo sapiens, UniProt O75533+Q7RTV0)
T6 construct: Cysteine engagement data from 22Rv1 cells treated; endogenous in cells; host or cells: 22Rv1
T6 sequence (O75533 whole entry): as the sequence (O75533 whole entry) above
T6 sequence (Q7RTV0 whole entry): as the sequence (Q7RTV0 whole entry) above
T6 sequence (Q15393 whole entry partner): as the sequence (Q15393 whole entry partner) above
T6 sequence (Q9BWJ5 whole entry partner): as the sequence (Q9BWJ5 whole entry partner) above
Experimental: as §1, §2, §3

[7] = molecular target: T7, SF3B1 795 (Homo sapiens, UniProt O75533)
T7 construct: endogenous in cells; host or cells: 22Rv1
T7 sequence (O75533 whole entry): as the sequence (O75533 whole entry) above
Experimental: as §1, §2, §3

[8] = molecular target: T8, SF3B1 796 (Homo sapiens, UniProt O75533)
T8 construct: endogenous in cells; host or cells: 22Rv1
T8 sequence (O75533 whole entry): as above
Experimental: as §1, §2, §3

[9] = molecular target: T9, SF3B1 965 (Homo sapiens, UniProt O75533+Q7RTV0)
T9 construct: Cysteine engagement data from 22Rv1 cells treated; endogenous in cells; host or cells: 22Rv1
T9 sequence (O75533 whole entry): as above
T9 sequence (Q7RTV0 whole entry): as the sequence (Q7RTV0 whole entry) above
T9 sequence (Q15393 whole entry partner): as the sequence (Q15393 whole entry partner) above
T9 sequence (Q9BWJ5 whole entry partner): as the sequence (Q9BWJ5 whole entry partner) above
Experimental: as §1, §2, §3

SMILES | percent engagement relative to DMSO, PSME1 106 ([1]; 5 uM) | percent engagement relative to DMSO, PSME1 106 ([1]; 20 uM) | percent engagement relative to DMSO, SF3B1 933 ([2]; 5 uM) | percent engagement relative to DMSO, SF3B1 933 ([2]; 20 uM) | percent engagement relative to DMSO, SF3B1 1035 ([3]; 5 uM) | percent engagement relative to DMSO, SF3B1 1035 ([3]; 20 uM) | percent engagement relative to DMSO, SF3B1 1244 ([4]; 5 uM) | percent engagement relative to DMSO, SF3B1 1244 ([4]; 20 uM) | percent engagement relative to DMSO, PSME1 101 ([5]; 5 uM) | percent engagement relative to DMSO, PSME1 101 ([5]; 20 uM) | percent engagement relative to DMSO, SF3B1 1123 ([6]; 5 uM) | percent engagement relative to DMSO, SF3B1 1123 ([6]; 20 uM) | percent engagement relative to DMSO, SF3B1 795 ([7]; 5 uM) | percent engagement relative to DMSO, SF3B1 795 ([7]; 20 uM) | percent engagement relative to DMSO, SF3B1 796 ([8]; 5 uM) | percent engagement relative to DMSO, SF3B1 796 ([8]; 20 uM) | percent engagement relative to DMSO, SF3B1 965 ([9]; 5 uM) | percent engagement relative to DMSO, SF3B1 965 ([9]; 20 uM)
C=CC(=O)N1[C@H](c2ccc3c(c2)OCO3)c2[nH]c3ccccc3c2C[C@H]1C(=O)N1CCOCC1 [WX-02-23, 1-((1R,3S)-1-(benzo[d][1,3]dioxol-S-yl)-3-(morpholine-4-carbonyl)-1,3,4,9-tetrahydro-2H-pyrido [3,4-b]indol-2-yl)prop-2-en-1-one] | −4.44% | −17.66% | −7.02% | −4.95% | −9.265% | −6.03% | −11.92% | −12.54% | −4.575% | −14.73% | 5.965% | 21.005% | −4.58% | −5.905% | −6.42% | −5.075% | −15.75% | −8.665%
C=CC(=O)N1[C@@H](c2ccc3c(c2)OCO3)c2[nH]c3ccccc3c2C[C@@H]1C(=O)N1CCOCC1 [WX-02-43, 1-((1S,3R)-1-(benzo[d][1,3]dioxol-5-yl)-3-(morpholine-4-carbonyl)-1,3,4,9-tetrahydro-2H-pyrido [3,4-b]indol-2-yl)prop-2-en-1-one] | −7.69% | −20.355% | 6.345% | 2.595% | 1.53% | 8.13% | −1.065% | −1.615% | −9.325% | −5.635% | 1.425% | 21.84% | 5.715% | 3.145% | 6.755% | 7.34% | 1.985% | 13.895%
